Literature values in US20250345461A1, “METHOD FOR REPAIRING HAIR CYCLE-RELATED GENES AND METHOD FOR TREATING HAIR CYCLE-RELATED DISEASES USING MIR-520D-5P” (LIVIUS PTE. LTD., priority 2021, published 2025).
Structures can show the parent of a compound that is named as a salt. Where two headings read alike, the source gives them in different places. Each block holds one compound with its values, some of them ahead of it.

Compound: CCCCC(CC)CNC(=N)NC(=N)NCCCCCCNC(=N)NC(=N)NCC(CC)CCCC (stereo not drawn) [Alexidine]
Inhibition of cancer growth (concentration in known indications) (Inhibition of cancer growth): Inhibition of cancer growth: 1 mM

Maximum effective blood concentration at the time of administration or concentration in an external preparation in known indications (Edematous diseases): Administration: 100 μM
Compound: C=C(CC)C(=O)c1ccc(OCC(=O)O)c(Cl)c1Cl [Ethacrynic acid]

Maximum effective blood concentration at the time of administration or concentration in an external preparation in known indications (Type 2 diabetes): Administration: 30 μg/mL
Compound: CCCNC(=O)NS(=O)(=O)c1ccc(Cl)cc1 [Chlorpropamide]

Compound: Colistin
Maximum effective blood concentration at the time of administration or concentration in an external preparation in known indications (Escherichia coli, Shigella, multidrug-resistant Pseudomonas aeruginosa, infectious enteritis): Administration: 4.4 μg/mL

Maximum effective blood concentration at the time of administration or concentration in an external preparation in known indications (Essential hypertension, parenchymal renal hypertension, angina, glaucoma, ocular hypertension): Administration: 41.8 ng/mL
Compound: CC(C)NCC(O)COc1ccc(CCOCC2CC2)cc1 (stereo not drawn) [Betaxolol]

Maximum effective blood concentration at the time of administration or concentration in an external preparation in known indications (Hypertension): Administration: 75 ng/mL
Compound: CCOc1nc2cccc(C(=O)O)c2n1Cc1ccc(-c2ccccc2-c2nnn[nH]2)cc1 [Candesartan]

Compound: CC(C)NCC(O)COc1ccc(COCCOC(C)C)cc1 (stereo not drawn) [Bisoprolol, Bisoprolol fumarate]
Maximum effective blood concentration at the time of administration or concentration in an external preparation in known indications (Chronic heart failure due to essential hypertension, angina, ischemic heart disease, and dilated cardiomyopathy): Administration: 100 ng/mL

Compound: C=CCOc1ccccc1OCC(O)CNC(C)C (stereo not drawn) [Oxprenolol]
Maximum effective blood concentration at the time of administration or concentration in an external preparation in known indications (Tachyarrhythmia, angina): Administration: 30.18 μg/μL

Compound: CN[C@H](CC(C)C)C(=O)N[C@H]1C(=O)N[C@@H](CC(N)=O)C(=O)N[C@H]2C(=O)N[C@H]3C(=O)N[C@H](C(=O)N[C@H](C(=O)O)c4cc(O)cc(O)c4-c4cc3ccc4O)[C@H](O)c3ccc(c(Cl)c3)Oc3cc2cc(c3O[C@@H]2O[C@H](CO)[C@@H](O)[C@H](O)[C@H]2O[C@H]2C[C@](C)(N)[C@H](O)[C@H](C)O2)Oc2ccc(cc2Cl)[C@H]1O [Vancomycin]
Maximum effective blood concentration at the time of administration or concentration in an external preparation in known indications (MRSA infection): Administration: 30 μg/mL
